Laboratory results published in PubChem BioAssay (NCI).
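Exposure lasted 48 hours, with cells grown in 96-well plates and compounds tested at five concentrations. TGI denotes the concentration required for complete inhibition of growth.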

Assays:
Assay in all cases: NCI tumour cell line growth inhibition, 48 h
OVCAR-8 ovarian = test system: OVCAR-8 ovarian
HT29 colon = test system: HT29 colon
HCT-15 colon = test system: HCT-15 colon
MALME-3M melanoma = test system: MALME-3M melanoma
SNB-19 CNS = test system: SNB-19 CNS
NCI-H460 lung = test system: NCI-H460 lung
MCF7 breast = test system: MCF7 breast
HL-60(TB) leukemia = test system: HL-60(TB) leukemia
SK-MEL-2 melanoma = test system: SK-MEL-2 melanoma
NCI-H226 lung = test system: NCI-H226 lung
A498 renal = test system: A498 renal
HCT-116 colon = test system: HCT-116 colon
PC-3 prostate = test system: PC-3 prostate
KM12 colon = test system: KM12 colon
ACHN renal = test system: ACHN renal
SW-620 colon = test system: SW-620 colon
SR leukemia = test system: SR leukemia
HOP-92 NSCLC = test system: HOP-92 NSCLC
EKVX NSCLC = test system: EKVX NSCLC
SK-MEL-28 melanoma = test system: SK-MEL-28 melanoma
HOP-62 NSCLC = test system: HOP-62 NSCLC
SF-539 CNS = test system: SF-539 CNS
SK-MEL-5 melanoma = test system: SK-MEL-5 melanoma
K-562 leukemia = test system: K-562 leukemia
BT-549 breast = test system: BT-549 breast
U251 CNS = test system: U251 CNS
MDA-MB-231 breast = test system: MDA-MB-231 breast
MDA-N = test system: MDA-N
SN12C renal = test system: SN12C renal
T-47D breast = test system: T-47D breast
RXF 393 renal = test system: RXF 393 renal
TK-10 renal = test system: TK-10 renal
SF-295 CNS = test system: SF-295 CNS
COLO 205 colon = test system: COLO 205 colon
SF-268 CNS = test system: SF-268 CNS
SK-OV-3 ovarian = test system: SK-OV-3 ovarian
786-0 renal = test system: 786-0 renal
NCI-H522 lung = test system: NCI-H522 lung
CCRF-CEM leukemia = test system: CCRF-CEM leukemia
OVCAR-5 ovarian = test system: OVCAR-5 ovarian
CAKI-1 renal = test system: CAKI-1 renal
MOLT-4 leukemia = test system: MOLT-4 leukemia
UO-31 renal = test system: UO-31 renal
UACC-62 melanoma = test system: UACC-62 melanoma
LOX IMVI melanoma = test system: LOX IMVI melanoma
HS 578T breast = test system: HS 578T breast
SNB-75 CNS = test system: SNB-75 CNS
RPMI-8226 leukemia = test system: RPMI-8226 leukemia
MDA-MB-435 = test system: MDA-MB-435
A549 NSCLC = test system: A549 NSCLC
HCC-2998 colon = test system: HCC-2998 colon
OVCAR-4 ovarian = test system: OVCAR-4 ovarian
NCI/ADR-RES ovarian = test system: NCI/ADR-RES ovarian
UACC-257 melanoma = test system: UACC-257 melanoma
IGROV1 ovarian = test system: IGROV1 ovarian
NCI-H23 lung = test system: NCI-H23 lung
DU-145 prostate = test system: DU-145 prostate
OVCAR-3 ovarian = test system: OVCAR-3 ovarian
M14 melanoma = test system: M14 melanoma

Measured: TGI

O=C(O)c1c(CC(Cc2ccccc2)C(=O)O)ccc2c1CCC2 (configuration not stated)
not listed: M14 melanoma
> 100 µM: all other assays above

C#CCn1c(I)cc2c(c1=O)COC(=O)[C@]2(O)CC
> 100 µM: all assays above
